This note sets out measurements from publication PMC3800496 (ACS Chemical Biology, 2013).

Bounds are passed on as bounds.

What all share (assay): anti-proliferation assay
Format in all cases: cell-based

For one assay, the system named is SNU-449(OMT). Particulars: Homo sapiens, SNU-449, 48 h, read-out: anti-proliferation GI50.
A further assay has as its system T47D(OWT). The conditions noted are these: Homo sapiens, 48 h, read-out: anti-proliferation GI50.
The next assay relates to SW480(OWT). The conditions noted are these: Homo sapiens, SW480, 48 h, read-out: anti-proliferation GI50.
The test system of another assay is EJ(WT). Particulars: 48 h, read-out: anti-proliferation GI50.
The next assay concerns HCT-116(OWT). Particulars: Homo sapiens, HCT-116, 48 h, read-out: anti-proliferation GI50.
The next assay concerns SaoS2(WT). The conditions noted are these: Homo sapiens, SAOS-2, 48 h, read-out: anti-proliferation GI50.
The subject of another assay is H1975(WT). The conditions noted are these: Homo sapiens, NCI-H1975, 48 h, read-out: anti-proliferation GI50.
In another assay the test system is SNU-1040(OMT). Particulars: Homo sapiens, 48 h, read-out: anti-proliferation GI50.
A further assay relates to SkBr3(WT). Particulars: Homo sapiens, SK-BR-3, 48 h, read-out: anti-proliferation GI50.
Another assay deals with A549(WT). The conditions noted are these: Homo sapiens, A549, 48 h, read-out: anti-proliferation GI50.

Take `CCN1CCN(Cc2ccc(C(=O)Nc3ccc(C)c(Oc4ccc5c(c4)CC(=O)N5)c3)cc2C(F)(F)F)CC1` [DDR1-IN-1]: the GI50 is over 10 µM in the assay with SNU-449(OMT); over 10 µM with T47D(OWT); over 10 µM in the assay with SW480(OWT); over 10 µM in the assay with EJ(WT); 8.7 µM in the assay with HCT-116(OWT); 8.14 µM in the assay on SaoS2(WT). Moreover, the GI50 with H1975(WT), in the assay on SNU-1040(OMT), with SkBr3(WT) and in the assay with A549(WT) was over 10 µM each time.
